Among the data in ChEMBL document CHEMBL1127008, “Synthesis of myo-inositol 1,2,4,5-tetrakisphosphate, a Ca2+-mobilising tetrakisphosphate with a potency similar to myo-inositol 1,4,5-trisphosphate” (Bioorg Med Chem Lett, 1993) are EC50, Ki and Km values, retold here.

Test [1] can be described thus: Compound was evaluated for its ability to mobilize calcium in 1321NI cells. Format: functional, cell-based.
For test [2], the species on record is Homo sapiens. Put plainly: Compound was evaluated for the inhibition of [3H]- Ins(1,4,5)P3 dephosphorylation by human erythrocyte membrane Ins(1,4,5)P3 5-phosphatase. Format: functional.
Test [3] deals with Inositol 1,4,5-trisphosphate-gated calcium channel ITPR3 (Bos taurus, UniProt Q8WN95). In words: Compound was evaluated for its ability to displace [3H]Ins(1,4,5)P3 from membranes prepared from bovine adrenal corticles.
Chain of Inositol 1,4,5-trisphosphate-gated calcium channel ITPR3 (Q8WN95 whole entry): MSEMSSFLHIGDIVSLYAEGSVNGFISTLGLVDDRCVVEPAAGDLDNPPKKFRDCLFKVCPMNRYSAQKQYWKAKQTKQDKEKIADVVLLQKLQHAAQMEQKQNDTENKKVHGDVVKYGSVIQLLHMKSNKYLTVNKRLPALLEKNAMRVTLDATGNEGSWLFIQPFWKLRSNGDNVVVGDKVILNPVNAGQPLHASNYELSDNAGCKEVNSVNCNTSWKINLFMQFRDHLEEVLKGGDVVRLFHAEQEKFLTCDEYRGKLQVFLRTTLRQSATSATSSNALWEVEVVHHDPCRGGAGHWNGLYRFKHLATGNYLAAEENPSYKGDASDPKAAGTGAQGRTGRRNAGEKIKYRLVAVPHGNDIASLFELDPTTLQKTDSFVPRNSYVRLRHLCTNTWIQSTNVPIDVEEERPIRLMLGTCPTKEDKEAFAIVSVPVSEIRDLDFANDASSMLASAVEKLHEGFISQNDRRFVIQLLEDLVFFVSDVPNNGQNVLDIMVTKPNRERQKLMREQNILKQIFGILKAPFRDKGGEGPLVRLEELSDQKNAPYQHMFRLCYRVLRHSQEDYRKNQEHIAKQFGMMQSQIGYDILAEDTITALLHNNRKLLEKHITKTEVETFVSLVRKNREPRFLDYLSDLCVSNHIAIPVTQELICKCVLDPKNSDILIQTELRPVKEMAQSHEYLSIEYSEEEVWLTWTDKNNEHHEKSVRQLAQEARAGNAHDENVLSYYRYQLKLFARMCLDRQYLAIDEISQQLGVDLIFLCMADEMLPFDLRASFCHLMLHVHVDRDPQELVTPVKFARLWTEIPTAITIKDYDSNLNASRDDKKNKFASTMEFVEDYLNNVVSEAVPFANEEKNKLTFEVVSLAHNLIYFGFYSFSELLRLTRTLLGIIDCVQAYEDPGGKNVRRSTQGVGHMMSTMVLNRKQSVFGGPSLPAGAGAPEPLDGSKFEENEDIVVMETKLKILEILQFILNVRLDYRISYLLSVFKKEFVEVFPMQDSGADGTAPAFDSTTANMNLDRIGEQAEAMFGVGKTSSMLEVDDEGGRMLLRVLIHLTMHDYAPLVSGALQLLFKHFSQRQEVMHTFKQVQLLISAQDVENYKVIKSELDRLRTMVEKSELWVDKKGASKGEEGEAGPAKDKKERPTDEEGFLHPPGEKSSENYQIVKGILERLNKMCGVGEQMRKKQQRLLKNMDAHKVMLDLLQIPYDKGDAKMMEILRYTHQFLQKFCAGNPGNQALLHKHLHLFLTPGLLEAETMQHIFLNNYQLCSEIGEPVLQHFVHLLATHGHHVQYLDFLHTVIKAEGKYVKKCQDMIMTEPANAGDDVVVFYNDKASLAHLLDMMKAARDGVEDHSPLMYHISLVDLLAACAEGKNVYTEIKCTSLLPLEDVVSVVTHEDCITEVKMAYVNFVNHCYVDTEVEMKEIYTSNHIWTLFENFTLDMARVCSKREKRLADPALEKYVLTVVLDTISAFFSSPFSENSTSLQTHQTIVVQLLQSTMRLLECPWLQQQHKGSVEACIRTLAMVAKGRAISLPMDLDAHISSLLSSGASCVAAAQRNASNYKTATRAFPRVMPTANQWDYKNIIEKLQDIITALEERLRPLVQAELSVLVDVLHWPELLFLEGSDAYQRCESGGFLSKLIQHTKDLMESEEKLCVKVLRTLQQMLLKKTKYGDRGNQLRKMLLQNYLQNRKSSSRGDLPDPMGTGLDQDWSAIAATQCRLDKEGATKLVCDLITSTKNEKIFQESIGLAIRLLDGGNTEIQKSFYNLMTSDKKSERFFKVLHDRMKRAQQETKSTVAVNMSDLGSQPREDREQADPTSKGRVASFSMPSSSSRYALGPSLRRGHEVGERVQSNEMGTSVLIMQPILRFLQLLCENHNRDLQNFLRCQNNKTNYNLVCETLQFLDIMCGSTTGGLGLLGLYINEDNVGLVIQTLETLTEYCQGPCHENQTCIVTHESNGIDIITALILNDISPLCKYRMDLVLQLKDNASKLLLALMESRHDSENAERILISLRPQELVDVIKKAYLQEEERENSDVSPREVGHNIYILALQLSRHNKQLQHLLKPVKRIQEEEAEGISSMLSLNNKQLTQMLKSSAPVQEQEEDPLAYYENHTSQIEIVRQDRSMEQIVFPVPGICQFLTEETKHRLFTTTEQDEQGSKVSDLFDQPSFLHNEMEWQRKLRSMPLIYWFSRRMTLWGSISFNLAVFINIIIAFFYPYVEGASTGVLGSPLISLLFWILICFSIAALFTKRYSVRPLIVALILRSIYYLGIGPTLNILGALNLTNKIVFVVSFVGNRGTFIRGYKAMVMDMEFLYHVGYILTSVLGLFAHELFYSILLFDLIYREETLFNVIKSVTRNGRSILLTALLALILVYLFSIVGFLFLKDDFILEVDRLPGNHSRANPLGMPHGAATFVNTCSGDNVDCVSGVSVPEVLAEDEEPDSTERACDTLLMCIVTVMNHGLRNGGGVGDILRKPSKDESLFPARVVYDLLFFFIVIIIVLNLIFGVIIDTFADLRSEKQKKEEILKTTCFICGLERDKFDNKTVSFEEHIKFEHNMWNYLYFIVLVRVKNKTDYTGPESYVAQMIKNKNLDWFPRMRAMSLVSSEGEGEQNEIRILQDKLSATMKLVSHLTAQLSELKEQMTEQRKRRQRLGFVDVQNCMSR
Test [4] is described as follows: Inhibition of Ins(1,4,5)P3 phosphorylation by rat brain homogenate. Format: functional.
Test [5] is described as follows: Compound was evaluated for its ability to mobilize calcium from [Ca(2+)]-preloaded SH-SY5Y cells permeabilised using saponin; devoid of [Ca2+] mobilising activity. It counts as functional, cell-based, Homo sapiens.
Test [6] in a line: Compound was evaluated for its ability to mobilize calcium from [Ca(2+)]-preloaded SH-SY5Y cells permeabilised using saponin. Format: functional, cell-based. To be noted: Homo sapiens.
Another test is filed under the species Rattus norvegicus. In words: Enzyme kinetics constant (Km value) was determined in rat brain homogenate […]. Format: functional.
The species entered for test [7] is Homo sapiens. In words: Enzyme kinetics constant (Km value) was determined in human erythrocyte membrane […]. It counts as functional.

For the molecule `O=C(OC1C(OP(=O)(O)O)C(OP(=O)(O)O)C(OC(=O)c2ccccc2)C(OP(=O)(O)O)C1OP(=O)(O)O)c1ccccc1` (centres undefined), the EC50 in test [1] was less than 100 µM; in test [5], “Not Active”. The Ki was 15.9 µM in the test listed under Homo sapiens [2], less than 3 µM in test [3] and 100 µM in test [4].
In the case of `O=P(O)(O)O[C@H]1[C@H](O)[C@@H](OP(=O)(O)O)[C@H](OP(=O)(O)O)[C@@H](OP(=O)(O)O)[C@H]1O`, the concentration giving a half-maximal response (EC50) in test [6] turned out to be 2.1 µM.
With `O=P(O)(O)O[C@@H]1[C@H](O)[C@H](O)[C@@H](OP(=O)(O)O)[C@H](OP(=O)(O)O)[C@H]1O` [INS(1,4,5)P3], the EC50 in test [6] was determined as 0.052 µM. For the same molecule, the values for the Km in the test listed under Rattus norvegicus and in the test filed under Homo sapiens [7] were 1.5 µM and 31.8 µM, respectively.

For orientation: EC50 means the midpoint of the concentration-response curve. Usually Ki stands for the equilibrium dissociation constant of an inhibitor or competing ligand from its target. Broadly, the Km is the substrate concentration at which the rate is half of its maximum.
